# Measured values reported in patent US20250154212A1, “METHOD OF DISRUPTING MEMORY AND LIPOPEPTIDE FOR USE IN SUCH METHOD” (The Research Foundation for The State University of New York, priority 2023, published 2025).
# Legend:
# [1] = system: KIBRA with conventional PKCs (PKCα, PKCβI, PKCβII, PKCγ); test: BiFC assay of KIBRA with conventional PKCs in HEK293T cells; assay type: cell-based, human; conditions: 10 μM
# Description: KIBRA-PKMζ BiFC was performed as previously described (28), using pVen1-FLAG-KIBRA and pVen2-HA-PKMζ, in which PKMζ was cloned between EcoR1 and BamH1 sites. The constructs pVen1 and pVen2 encode the N-terminus (amino acids 1-154) and C-terminus (amino acids 155-238) of the Venus protein, respectively, and the Venus fragments were on the N-terminal of the fusion proteins. pVen2-HA-PKMζ[PKCι/λ-P291Q;F297S] was generated by site-directed mutagenesis using forward-cctggagAagcAAatceggatcccccggtCcctgtccgte and reverse-gacggacaggGaccgggggatccggatTTgctTctccagg primers and the QuickChange II XL Site-Directed Mutagenesis Kit (Agilent Technologies), following manufacturer's instructions. Additional pVen2-HA-PKC isoforms and pVen2-HA-CaMKIIα in the pVen2-HA vector were generated by cloning the N-terminus of the coding sequence of each kinase (table S1) to obtain an in-frame fusion at the C-terminus of the pVen2-HA. Human versions of KIBRA and kinases were used, and all PCR amplified sequences and constructs were verified by DNA sequencing.
# HEK293T cells were cultured in Dulbecco's Modified Eagle's Medium supplemented with 10% heat-inactivated fetal bovine serum, 100 U/ml penicillin, […] streptomycin, 2 mM glutamine, and 10 mM HEPES in a T75 tissue culture flask with canted neck and ventilated cap. […]
# [2] = system: auditory-cued fear/threat memory; test: Auditory-cued fear/threat conditioning, infusion into basolateral amygdala, wild-type mice; assay type: in vivo, mouse; conditions: 6 nmol in 0.3 μL into each BLA, tested 1 day post-injection
# Description: Mice were 8-10 weeks old at the time of cannulation and 9-11 weeks old at the beginning of behavioral experiments. Mice were housed with cage-mates in plastic cages and provided with food and water ad libitum. Mice were maintained on a 12 h light/dark cycle (lights on at 7:00 am) and behavioral experiments began at 9:00 am.
# Mice were injected intraperitoneally (1 ml/100 g body weight) with an anesthetic cocktail containing ketamine (10 mg/ml) and xylazine (2 mg/ml). Mice were provided with analgesic treatment prior to surgery (carprofen; 5 mg/ml). Guide cannulae (Plastics One, Roanoke, VA) were implanted bilaterally in the basolateral amygdala (from bregma: AP-1.7 mm; L+/−3.0 mm; DV-4.4 mm) and secured to the skull with three jeweler's screws and dental cement. Antisedan (0.66 ml/100 g body weight of 0.5 mg drug/ml solution) was given via i.p. injection after surgery to reverse the anesthesia.
# For 7 days following surgery, mice were handled by freely exploring the experimenter's palm for 2-5 min. Mice were habituated, trained, and tested in the same conditioning box (Coulbourn Habitest, Coulboum Instruments) with differing floors and walls to produce two different contexts (Context A and Context B). […] Freezing behavior (cessation of all movement except breathing) during the tone on Test 1 and Test 2 was scored by an experimenter blind to the conditions. […]
smiles,measurement,setting,value
"O=S(=O)(O)c1cc(O)c2c(S(=O)(=O)O)cc(S(=O)(=O)O)cc2c1 [ζ-stat, 1-naphthol-3,6,8-trisulphonic acid]",effect on BiFC of KIBRA with conventional PKCs,[1],has no effect
same,auditory-cued fear/threat memory retention (% time freezing to tone),[2],impairs memory retention
same,auditory-cued fear/threat memory retention (% time freezing to tone),[2]; listed as z-stat,disrupts fear/threat memory retention
